The nature of assay [1]: Binding affinity to mitogen-activated protein kinase p38 by thermal denaturation assay.
Assay [2] is described as follows: Binding affinity to mitogen-activated protein kinase p38.
In the next assay the test system is Blood. Description: Inhibition of LPS-stimulated TNFalpha production in human whole blood. Type of assay: functional, tissue-based.
A further assay concerns THP-1. Kind of assay: Inhibition of LPS-stimulated TNFalpha production in human THP1 cells. The assay is classed as functional, cell-based.

By Tm is commonly meant the temperature at the midpoint of the melting transition. One may read the Kd as the free concentration of one partner at which half of the binding sites on the other are occupied at equilibrium, for simple one-to-one binding. A higher Kd goes with a looser complex. For orientation: IC50 means the midpoint of a concentration-inhibition curve. Read a low IC50 as greater potency in that assay.

For the compound `CCOC(=O)C1=CN(c2cc(C(=O)Nc3cc(C(C)(C)C)cc(NS(C)(=O)=O)c3OC)ccc2C)NN1`, in assay [1], the midpoint of thermal melting (Tm) was 56.2 °C. The same compound yielded a Kd in assay [2] of 0.008 µM. For the same compound, the concentration for half-maximal inhibition (IC50) was 9 µM in the assay on Blood and > 5 µM in the assay with THP-1.

The values are drawn from ChEMBL document CHEMBL1143089, “Structure-based design and subsequent optimization of 2-tolyl-(1,2,3-triazol-1-yl-4-carboxamide) inhibitors of p38 MAP kinase” (Bioorg Med Chem Lett, 2008).
